Test results reported in ChEMBL document CHEMBL1201862, “PubChem BioAssay data set” (2004).
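Assay format: 96-well plates, 48-hour exposure. Abbreviation: GI50, concentration required for 50% inhibition of growth.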 The source made the active and inactive calls. No stated cut-off is given here; in the data, active = GI50 up to about 1.1 µM and inactive = higher. Residues, ends and D or L forms follow the SMILES beside them. *: point of attachment. Boc = CC(C)(C)OC(=O)*

Tests used:
Test in all cases: NCI tumour cell line growth inhibition, 48 h
786-0 = test system: 786-0
DU-145 = test system: DU-145
HCT-15 = test system: HCT-15
UACC-257 = test system: UACC-257
A498 = test system: A498
SNB-75 = test system: SNB-75
U-251 = test system: U-251
HL-60 = test system: HL-60
A549 = test system: A549
CCRF-CEM = test system: CCRF-CEM
SNB-19 = test system: SNB-19
OVCAR-4 = test system: OVCAR-4
SR = test system: SR
MDA-MB-435 = test system: MDA-MB-435
OVCAR-3 = test system: OVCAR-3
Malme-3M = test system: Malme-3M
MCF7 = test system: MCF7
SF-295 = test system: SF-295
CAKI-1 = test system: CAKI-1
TK-10 = test system: TK-10

Compound	GI50 (786-0)	GI50 (DU-145)	GI50 (HCT-15)	GI50 (UACC-257)	GI50 (A498)	GI50 (SNB-75)	GI50 (U-251)	GI50 (HL-60)	GI50 (A549)	GI50 (CCRF-CEM)	GI50 (SNB-19)	GI50 (OVCAR-4)	GI50 (SR)	GI50 (MDA-MB-435)	GI50 (OVCAR-3)	GI50 (Malme-3M)	GI50 (MCF7)	GI50 (SF-295)	GI50 (CAKI-1)	GI50 (TK-10)
COc1cc2c(cc1NC(=O)c1ccccc1)c1c(n2S(=O)(=O)c2ccccc2)CCN(S(=O)(=O)c2ccccc2)C1	> 100 µM (inactive)	> 100 µM (inactive)	> 100 µM	> 100 µM (inactive)	> 100 µM (inactive)	> 100 µM (inactive)	> 100 µM (inactive)	> 100 µM (inactive)	> 100 µM (inactive)	> 100 µM (inactive)	> 100 µM (inactive)	> 100 µM (inactive)	> 100 µM (inactive)	> 100 µM (inactive)	> 100 µM (inactive)					
COc1cc2c[n+](C)c3c4cc(OC)c(OC)cc4c(OC)cc3c2cc1OC	5.43 µM (inactive)	8.45 µM (inactive)	> 100 µM	2.86 µM (inactive)	> 100 µM (inactive)	7.91 µM (inactive)	2.38 µM (inactive)		> 65.3 µM (inactive)	6.1 µM (inactive)	1.03 µM (active)	8.02 µM (inactive)		11.2 µM (inactive)	2.34 µM (inactive)	2.06 µM (inactive)	2.17 µM (inactive)	20 µM (inactive)	> 100 µM (inactive)	> 100 µM (inactive)
Cc1nc2c(=O)n(-c3ccccc3)c(=O)n(-c3ccccc3)c2o1	> 100 µM (inactive)		> 100 µM	> 100 µM (inactive)	> 100 µM (inactive)	> 100 µM (inactive)	> 100 µM (inactive)		> 100 µM (inactive)	> 100 µM (inactive)	> 100 µM (inactive)	> 100 µM (inactive)	> 100 µM (inactive)	> 100 µM (inactive)	> 100 µM (inactive)	> 100 µM (inactive)	> 100 µM (inactive)	> 100 µM (inactive)	> 100 µM (inactive)	58.3 µM (inactive)
O=C(CC(=O)Nc1ccccc1Cl)NNC(Sc1ccccc1)c1cc(/N=N/c2ccc(Br)cc2)ccc1O (configuration not stated)	0.653 µM (active)	2.28 µM (inactive)	0.679 µM	2.37 µM (inactive)	2.39 µM (inactive)	4.8 µM (inactive)	1.59 µM (inactive)	0.315 µM (active)	3.08 µM (inactive)	0.409 µM (active)	4.06 µM (inactive)	1.86 µM (inactive)		2.06 µM (inactive)	0.404 µM (active)	2.12 µM (inactive)	0.681 µM (active)	1.88 µM (inactive)	1.46 µM (inactive)	1.69 µM (inactive)
COC(=O)C(Cc1c[nH]c2ccccc12)NC(=O)C(Cc1c[nH]c2ccccc12)NC(=O)C(Cc1c[nH]c2ccccc12)NC(=O)C(Cc1c[nH]c2ccccc12)NC(=O)OC(C)(C)C (configuration not stated) (Boc-WWWW-OMe; configuration not given here)	5.14 µM (inactive)	43.2 µM (inactive)	> 100 µM	79.4 µM (inactive)		25.5 µM (inactive)	14.4 µM (inactive)	6.34 µM (inactive)	39.4 µM (inactive)	3.78 µM (inactive)	31.9 µM (inactive)	48.5 µM (inactive)	4.51 µM (inactive)	23.4 µM (inactive)	15.1 µM (inactive)	69.8 µM (inactive)	< 0.01 µM (active)		44.3 µM (inactive)	34.7 µM (inactive)
CC1=CC(O)C(C(O)(C(F)(F)F)C(F)(F)F)C(C)(C)C1 (configuration not stated)	< 0.001 µM (active)	> 10 µM (inactive)	> 10 µM	> 10 µM (inactive)	0.0296 µM (active)	> 10 µM (inactive)	> 10 µM (inactive)	> 10 µM (inactive)	> 10 µM (inactive)	> 10 µM (inactive)	> 10 µM (inactive)	> 10 µM (inactive)		< 0.001 µM (active)	> 10 µM (inactive)	> 10 µM (inactive)	> 10 µM (inactive)	> 10 µM (inactive)	> 10 µM (inactive)	> 10 µM (inactive)
O=C(CN1C(=O)c2ccccc2C1=O)OCC1CCCN2CCCCC12 (configuration not stated)	> 100 µM (inactive)	> 100 µM (inactive)	> 100 µM	> 100 µM (inactive)	> 100 µM (inactive)	> 100 µM (inactive)	> 100 µM (inactive)	> 100 µM (inactive)	> 100 µM (inactive)	> 100 µM (inactive)	> 100 µM (inactive)	> 100 µM (inactive)		> 100 µM (inactive)		> 100 µM (inactive)	> 100 µM (inactive)	> 100 µM (inactive)	> 100 µM (inactive)	> 100 µM (inactive)
c1ccc2c(c1)ccc1nc3ccccn3c12	> 100 µM (inactive)	> 100 µM (inactive)	> 100 µM	> 100 µM (inactive)		> 100 µM (inactive)	> 100 µM (inactive)	> 100 µM (inactive)	> 100 µM (inactive)	> 100 µM (inactive)	> 100 µM (inactive)		> 100 µM (inactive)	> 100 µM (inactive)	> 100 µM (inactive)	> 100 µM (inactive)	> 100 µM (inactive)	> 100 µM (inactive)		> 100 µM (inactive)
